Here are results for six molecules from ChEMBL document CHEMBL1201862, “PubChem BioAssay data set” (2004).

Common to all, as to experiment: DTP human tumour cell line panel, 48 h
The subject of assay [1] is CAKI-1.
The subject of assay [2] is CCRF-CEM.
For assay [3], the system named is EKVX.
The subject of assay [4] is HL-60.
The test system of assay [5] is HOP-92.
The test system of assay [6] is LOX IMVI.
In assay [7] the test system is M14.
Assay [8] concerns MCF7.
Assay [9] concerns Malme-3M.
The subject of assay [10] is NCI-H23.
Assay [11] relates to OVCAR-4.
In assay [12] the test system is PC-3.
In assay [13] the test system is SF-295.
Assay [14] deals with SF-539.
Assay [15] has as its system SNB-75.
The subject of assay [16] is SR.
The test system of assay [17] is TK-10.
The test system of assay [18] is U-251.
Assay [19] relates to UACC-62.
In assay [20] the test system is UO-31.

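Protocol summary: plate cells (96-well), add compound at 5 concentrations, incubate 48 h, interpolate endpoints linearly. GI50: concentration for 50% inhibition of growth.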 Calls of active or inactive are those of the source. Cut-off read from the data, not from the text of the source: active = GI50 up to about 1.1 µM and inactive = higher.

Turning to `COc1cc(CNC(=O)CCCCCCCC/C=C/Br)ccc1O`, the GI50 in assay [1], in assay [2], in [3], in assay [4], in assay [5] and in assay [6] was > 10 µM (inactive) each time. Further, the GI50 in assay [7], in assay [8], in [9], in [10], in [11] and in [12] was > 10 µM (inactive) throughout. Further, the GI50 in assay [13], in [14], in assay [15], in [16], in assay [17] and in [18] was > 10 µM (inactive) throughout. The GI50 in [19] and in [20] was > 10 µM (inactive) each time.

As for `CC1OC(OC2C(OC(=O)[C@]34CCC(C)(C)C[C@H]3C3=CC[C@@H]5[C@@]6(C)CC[C@H](OC7OC(CO)C(O)C(O)C7OC7OC(CO)C(O)C(O)C7O)C(C)(C)[C@@H]6CC[C@@]5(C)[C@]3(C)CC4)OCC(O)C2O)C(O)C(OC2OCC(O)C(O)C2O)C1OC1OCC(O)C(OC2OCC(O)C(O)C2O)C1O` (stereo not given in full), the GI50 in assay [1] was 6.67 µM (inactive); in assay [2] it was 22.3 µM (inactive); in assay [3] it was 4.34 µM (inactive); in assay [4], 3.94 µM (inactive); in assay [5] it was 6.84 µM (inactive); in assay [6], 16.2 µM (inactive). Moreover, the GI50 in assay [7] is 2.42 µM (inactive); in [8], 7.71 µM (inactive); in [9], 4.46 µM (inactive); in assay [10], 6.37 µM (inactive); in [11] it was 10 µM (inactive); in [12], 11.8 µM (inactive). Moreover, the GI50 was 7.62 µM (inactive) in [13]; 67.8 µM (inactive) in assay [14]; 18.7 µM (inactive) in assay [15]; 5.19 µM (inactive) in assay [16]; 13.4 µM (inactive) in [17]; 18.2 µM (inactive) in [18]. Besides, the figures for the GI50 in assay [19] and in assay [20] were 13.5 µM (inactive) and 2.14 µM (inactive), respectively.

For the molecule `Cc1cn(C2CC(O)C(Cn3nncc3Cn3cnc4c(N)ncnc43)O2)c(=O)[nH]c1=O` (stereo not given), the GI50 in assay [1], in [2], in assay [3], in assay [4], in assay [5] and in [6] was > 100 µM (inactive) each time. Moreover, the GI50 in [7], in assay [8], in assay [9], in assay [10], in [11] and in assay [12] was > 100 µM (inactive) in each case. The GI50 was > 100 µM (inactive) in [13]; > 100 µM (inactive) in [14]; 58.3 µM (inactive) in [15]; > 100 µM (inactive) in assay [16]; > 100 µM (inactive) in assay [17]; > 100 µM (inactive) in [18]. The GI50 in assay [19] and in assay [20] was > 100 µM (inactive) each time.

As for `Cc1cc2ncn(C3CCCO3)c2cc1C` (stereo not given), the GI50 in assay [1], in assay [2], in [3], in assay [4], in [5] and in [6] was > 100 µM (inactive) throughout. Besides, the GI50 in [7], in [8], in assay [9], in [10], in assay [11] and in assay [12] was > 100 µM (inactive) each time. Moreover, the GI50 in assay [13] was > 100 µM (inactive); in [14] it was > 100 µM (inactive); in assay [15], 71.6 µM (inactive); in assay [16] it was > 100 µM (inactive); in assay [17], > 100 µM (inactive); in [18], > 100 µM (inactive). Moreover, the GI50 in assay [19] was > 100 µM (inactive); in assay [20] it was 28.3 µM (inactive).

As for `c1ccc(-c2c3c(nc4c2CC[C@H]4NC2=NCCN2)[C@@H](NC2=NCCN2)CC3)cc1`, the GI50 is > 100 µM (inactive) in [1]; > 100 µM (inactive) in [2]; > 100 µM (inactive) in assay [3]; 11.2 µM (inactive) in [4]; 20.7 µM (inactive) in [5]; 59 µM (inactive) in assay [6]. Moreover, the GI50 in [7] is > 100 µM (inactive); in assay [8], > 100 µM (inactive); in assay [9], > 100 µM (inactive); in assay [10], > 100 µM (inactive); in assay [11] it was > 100 µM (inactive); in assay [12], 98.2 µM (inactive). For the same molecule, the GI50 in assay [13] is > 100 µM (inactive); in [14] it was 27.4 µM (inactive); in [15], 58.1 µM (inactive); in [16], > 100 µM (inactive); in [17], > 100 µM (inactive); in assay [18], 9.31 µM (inactive). The GI50 in [19] and in assay [20] was > 100 µM (inactive) in each case.

With `[O-]/[N+](=C\c1ccccc1OC(=S)S)c1ccc(Cl)cc1`, the GI50 is 13.6 µM (inactive) in [1]; 2.42 µM (inactive) in assay [2]; 25.7 µM (inactive) in assay [3]; 0.22 µM (active) in [4]; 2.87 µM (inactive) in assay [5]; 14.9 µM (inactive) in assay [6]. In addition, the GI50 in assay [7] was 24.2 µM (inactive); in assay [8], 13 µM (inactive); in [9], > 100 µM (inactive); in [10], 23.8 µM (inactive); in assay [11], 13.9 µM (inactive); in [12] it was 23.9 µM (inactive). Moreover, the GI50 in assay [13] was 0.177 µM (active); in [14] it was 35.6 µM (inactive); in assay [15], > 100 µM (inactive); in assay [16] it was 21.8 µM (inactive); in assay [17], > 100 µM (inactive); in [18], 19.8 µM (inactive). Moreover, the values for the GI50 in assay [19] and in assay [20] were 11.9 µM (inactive) and 19.8 µM (inactive), respectively.
